# According to a compilation of properties of binary mixtures (doi:10.1016/j.molliq.2022.120983):
# Assay: xn = mol fraction of the nth substance listed
# Settings: 101.3 kPa
"viscosity (298.1 K, x1 = 0.0631)","viscosity (298.1 K, x1 = 0.1317)","viscosity (298.1 K, x1 = 0.2879)","viscosity (313 K, x1 = 0.0631)","viscosity (313 K, x1 = 0.1317)","viscosity (313 K, x1 = 0.2879)","viscosity (333 K, x1 = 0.0631)","viscosity (333 K, x1 = 0.1317)","viscosity (333 K, x1 = 0.2879)","viscosity (298.1 K, x1 = 0.0588)","viscosity (298.1 K, x1 = 0.1232)","viscosity (313 K, x1 = 0.0588)","viscosity (313 K, x1 = 0.2726)","viscosity (333 K, x1 = 0.1232)","viscosity (333 K, x1 = 0.2726)",Compound
4.09 mPa·s,10 mPa·s,20.9 mPa·s,2.73 mPa·s,6.4 mPa·s,12.3 mPa·s,1.82 mPa·s,3.64 mPa·s,7.3 mPa·s,,,,,,,C[N+](C)(C)CCO.NCC(=O)[O-] + O
,,,,,,,,,5 mPa·s,9.1 mPa·s,3.18 mPa·s,18.2 mPa·s,3.64 mPa·s,10.2 mPa·s,C[C@H](N)C(=O)[O-].C[N+](C)(C)CCO + O
